Laboratory results taken from ChEMBL document CHEMBL1201862, “PubChem BioAssay data set” (2004).
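All cell lines were grown in 96-well plates and treated with compound for 48 hours. The concentration for 50% growth inhibition is given as GI50.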 Active and inactive are the calls of the source. Cut-off read from the data, not from the text of the source: active = GI50 up to about 1.1 µM and inactive = higher.

Experiments:
Test in all cases: DTP human tumour cell line panel, 48 h
786-0 = system: 786-0
ACHN = system: ACHN
BT-549 = system: BT-549
CAKI-1 = system: CAKI-1
CCRF-CEM = system: CCRF-CEM
COLO 205 = system: COLO 205
DU-145 = system: DU-145
EKVX = system: EKVX
HCT-116 = system: HCT-116
HCT-15 = system: HCT-15
HL-60 = system: HL-60
HOP-62 = system: HOP-62
HT-29 = system: HT-29
Hs-578T = system: Hs-578T
IGROV-1 = system: IGROV-1
K562 = system: K562
KM12 = system: KM12
LOX IMVI = system: LOX IMVI
M14 = system: M14
MCF7 = system: MCF7
MDA-MB-231 = system: MDA-MB-231
MDA-MB-435 = system: MDA-MB-435
MDA-N = system: MDA-N
MOLT-4 = system: MOLT-4
Malme-3M = system: Malme-3M
NCI-H226 = system: NCI-H226
NCI-H23 = system: NCI-H23
NCI/ADR-RES = system: NCI/ADR-RES
OVCAR-3 = system: OVCAR-3
OVCAR-5 = system: OVCAR-5
OVCAR-8 = system: OVCAR-8
PC-3 = system: PC-3
RPMI-8226 = system: RPMI-8226
RXF 393 = system: RXF 393
SF-268 = system: SF-268
SF-295 = system: SF-295
SF-539 = system: SF-539
SK-MEL-28 = system: SK-MEL-28
SK-MEL-2 = system: SK-MEL-2
SK-MEL-5 = system: SK-MEL-5
SK-OV-3 = system: SK-OV-3
SN12C = system: SN12C
SNB-19 = system: SNB-19
SNB-75 = system: SNB-75
SR = system: SR
SW-620 = system: SW-620
T47D = system: T47D
TK-10 = system: TK-10
U-251 = system: U-251
UACC-257 = system: UACC-257
UACC-62 = system: UACC-62
UO-31 = system: UO-31
A498 = system: A498
A549 = system: A549
HOP-92 = system: HOP-92
NCI-H460 = system: NCI-H460
NCI-H522 = system: NCI-H522
OVCAR-4 = system: OVCAR-4

Measured: GI50

COc1ccc(C2NC(N)=C(C#N)C3=C2C(C)CCC3)cc1OC (centres undefined)
active: SR 0.261 µM
44.3 µM: HCT-15
inactive: 786-0 77.1 µM | ACHN 32.3 µM | BT-549 68.2 µM | CAKI-1 > 100 µM | CCRF-CEM 14.6 µM | COLO 205 37.3 µM | DU-145 > 100 µM | EKVX 33.4 µM | HCT-116 > 100 µM | HL-60 14.5 µM | HOP-62 15.9 µM | HT-29 40 µM | Hs-578T 74.3 µM | IGROV-1 15.5 µM | K562 25.6 µM | KM12 63.5 µM | LOX IMVI 35.5 µM | M14 59.2 µM | MCF7 43.2 µM | MDA-MB-231 59.7 µM | MDA-MB-435 63.5 µM | MDA-N > 100 µM | MOLT-4 2.75 µM | Malme-3M 28.6 µM | NCI-H226 > 100 µM | NCI-H23 > 100 µM | NCI/ADR-RES 35.2 µM | OVCAR-3 31.7 µM | OVCAR-5 > 100 µM | OVCAR-8 75.7 µM | PC-3 44.8 µM | RPMI-8226 10.2 µM | RXF 393 > 100 µM | SF-268 > 100 µM | SF-295 12.3 µM | SF-539 35.2 µM | SK-MEL-28 > 100 µM | SK-MEL-2 > 100 µM | SK-MEL-5 24.2 µM | SK-OV-3 75.3 µM | SN12C 44.4 µM | SNB-19 > 100 µM | SNB-75 1.44 µM | SW-620 > 100 µM | T47D 2.96 µM | TK-10 92.3 µM | U-251 41.8 µM | UACC-257 43.5 µM | UACC-62 56 µM | UO-31 4.65 µM

CCCCCCCCCCCC(=O)OCC(O)CO (centres undefined) [GLYCEROL MONOLAURATE]
inactive: 786-0 > 100 µM | A498 > 100 µM | A549 54.1 µM | ACHN > 100 µM | BT-549 36.4 µM | CAKI-1 > 100 µM | CCRF-CEM 42.7 µM | COLO 205 > 100 µM | DU-145 > 100 µM | EKVX > 100 µM | HCT-116 > 100 µM | HL-60 12.9 µM | HOP-62 > 100 µM | HOP-92 > 100 µM | HT-29 31.2 µM | Hs-578T > 100 µM | KM12 20.4 µM | LOX IMVI 48.1 µM | M14 69.7 µM | MCF7 > 100 µM | MDA-MB-231 > 100 µM | MDA-MB-435 61.4 µM | MDA-N 88.9 µM | MOLT-4 37.1 µM | NCI-H226 > 100 µM | NCI-H23 67.3 µM | NCI-H460 80.5 µM | NCI-H522 > 100 µM | NCI/ADR-RES > 100 µM | OVCAR-3 76.9 µM | OVCAR-4 > 100 µM | OVCAR-5 > 100 µM | OVCAR-8 > 100 µM | PC-3 > 100 µM | SF-268 > 100 µM | SF-295 > 100 µM | SF-539 > 100 µM | SK-MEL-28 > 100 µM | SK-MEL-2 > 100 µM | SK-MEL-5 59 µM | SK-OV-3 > 100 µM | SN12C > 100 µM | SNB-19 > 100 µM | SNB-75 > 100 µM | SW-620 > 100 µM | T47D 69.3 µM | TK-10 > 100 µM | U-251 71.3 µM | UACC-257 > 100 µM | UACC-62 > 100 µM | UO-31 71.9 µM
> 100 µM: HCT-15
